Reference: PubChem BioAssay AID312 (DTP/NCI, 2004)
“And” between values parts separate entries of the source, which are not always exact repeats. Identical values can stand only once. Toxic doses and inconclusive results are not listed.

Test system: BDF1 mice, C1498 leukemia ip, median survival T/C
Assay: NCI In Vivo Anticancer Drug Screen. Data for tumor model C1498 Myeloid Leukemia (intraperitoneal) in B6D2F1 (BDF1) mice
Details: endpoint: median survival time, higher = longer survival
Protocol: The antitumor activity of compounds was measured in mice bearing transplantable tumors. Survival or tumor size were measured and the results are expressed as the measurement made in the treated group (T) divided by the measurement made in the vehicle treated control group (C). The tumor model used in this assay is C1498 Myeloid Leukemia (intraperitoneal) in B6D2F1 (BDF1) mice

[1] = dose: 31.3 mg/kg/injection, schedule: Q01DX010 (ip), vehicle: saline
[2] = dose: 62.5 mg/kg/injection, schedule: Q01DX010 (ip), vehicle: saline
[3] = dose: 125.0 mg/kg/injection, schedule: Q01DX010 (ip), vehicle: saline
[4] = dose: 25.0 mg/kg/injection, schedule: Q01DX010 (ip), vehicle: saline
[5] = dose: 50.0 mg/kg/injection, schedule: Q01DX010 (ip), vehicle: saline
[6] = dose: 100.0 mg/kg/injection, schedule: Q01DX010 (ip), vehicle: saline
[7] = dose: 200.0 mg/kg/injection, schedule: Q01DX010 (ip), vehicle: saline
[8] = dose: 5.0 mg/kg/injection, schedule: Q01DX010 (ip), vehicle: saline
[9] = dose: 10.0 mg/kg/injection, schedule: Q01DX010 (ip), vehicle: saline

SMILES: CCn1cnc2c(=S)nc[nH]c21
- T/C (dose: 15.6 mg/kg/injection, schedule: Q01DX010 (ip), vehicle: saline): 105 % of control
- T/C [1]: 100 % of control
- T/C [2]: 105 % of control
- T/C [3]: 105 % of control

SMILES: CCN(CCNc1ccc(C)c2sc3cc(Cl)ccc3c(=O)c12)CC(C)O (centres undefined)
- T/C [1]: 86 % of control
- T/C [2]: 104 % of control and 90 % of control
- T/C [3]: 95 % of control and 86 % of control
- T/C (dose: 250.0 mg/kg/injection, schedule: Q01DX010 (ip), vehicle: saline): 86 % of control

SMILES: CC[C@]1(O)C[C@H]2CN(CCc3c([nH]c4ccccc34)[C@@](C(=O)OC)(c3cc4c(cc3OC)N(C=O)[C@H]3[C@@](O)(C(=O)OC)[C@H](OC(C)=O)[C@]5(CC)C=CCN6CC[C@]43[C@@H]65)C2)C1
- T/C (dose: 1.0 mg/kg/injection, schedule: Q04DX003 (ip), vehicle: saline): 112 % of control
- T/C (dose: 1.5 mg/kg/injection, schedule: Q04DX003 (ip), vehicle: saline): 115 % of control
- T/C (dose: 2.0 mg/kg/injection, schedule: Q04DX003 (ip), vehicle: saline): 118 % of control

SMILES: CS(=O)(=O)OCC(O)C(O)C(O)C(O)COS(C)(=O)=O (centres undefined)
- T/C [4]: 100 % of control (2×) and 104 % of control
- T/C [5]: 95 % of control and 100 % of control and 108 % of control
- T/C [6]: 100 % of control (2×) and 109 % of control
- T/C [7]: 104 % of control

SMILES: O=c1cnn(C2OC(CO)C(O)C2O)c(=O)[nH]1 (centres undefined)
- T/C [7]: 104 % of control
- T/C (dose: 400.0 mg/kg/injection, schedule: Q01DX010 (ip), vehicle: saline): 100 % of control
- T/C (dose: 800.0 mg/kg/injection, schedule: Q01DX010 (ip), vehicle: saline): 100 % of control

SMILES: CCCCCCCCCCCCCCCC(=O)OCC1OC(n2ccc(N)nc2=O)C(O)C1O (centres undefined)
- T/C (dose: 125.0 mg/kg/injection, schedule: Q01DX001 (ip), vehicle: saline with Tween-80): 153 % of control and 155 % of control
- T/C (dose: 150.0 mg/kg/injection, schedule: Q01DX001 (ip), vehicle: saline with Tween-80): 151 % of control and 194 % of control

SMILES: CCN(CC)CCNc1ccc(C)c2sc3ccccc3c(=O)c12
- T/C [4]: 113 % of control and 118 % of control
- T/C [5]: 118 % of control and 122 % of control
- T/C [6]: 159 % of control and 172 % of control

SMILES: N#[N+]c1cnc([O-])[nH]c1=O
- T/C (dose: 1.25 mg/kg/injection, schedule: Q01DX010 (ip), vehicle: saline): 100 % of control
- T/C (dose: 2.5 mg/kg/injection, schedule: Q01DX010 (ip), vehicle: saline): 122 % of control
- T/C [8]: 113 % of control
- T/C [9]: 118 % of control

SMILES: O=c1[nH]c(=O)n(C2CC(O)C(CO)O2)cc1F (centres undefined)
- T/C [8]: 109 % of control
- T/C [9]: 115 % of control and 118 % of control
- T/C (dose: 40.0 mg/kg/injection, schedule: Q01DX010 (ip), vehicle: saline): 154 % of control
- T/C (dose: 80.0 mg/kg/injection, schedule: Q01DX010 (ip), vehicle: saline): 107 % of control

SMILES: COc1cc2c(c3c1c(=O)c1ccccc1n3C)C=CC(C)(C)O2
- T/C (dose: 6.25 mg/kg/injection, schedule: Q01DX010 (ip), vehicle: other): 100 % of control
- T/C (dose: 12.5 mg/kg/injection, schedule: Q01DX010 (ip), vehicle: other): 107 % of control
- T/C (dose: 25.0 mg/kg/injection, schedule: Q01DX010 (ip), vehicle: other): 103 % of control
- T/C (dose: 50.0 mg/kg/injection, schedule: Q01DX010 (ip), vehicle: other): 119 % of control
- T/C (dose: 100.0 mg/kg/injection, schedule: Q01DX010 (ip), vehicle: other): 100 % of control

SMILES: CN(C)c1ccc(Nc2c3ccccc3nc3ccccc23)cc1
- T/C (dose: 36.0 mg/kg/injection, schedule: Q01DX010 (ip), vehicle: saline): 118 % of control
- T/C (dose: 120.0 mg/kg/injection, schedule: Q01DX010 (ip), vehicle: saline): 86 % of control

SMILES: Nc1nc2n[nH]nc2c(=O)[nH]1
- T/C (dose: 25.0 mg/kg/injection, schedule: Q01DX010 (ip), vehicle: alkali diluted with saline): 92 % of control and 96 % of control
- T/C (dose: 50.0 mg/kg/injection, schedule: Q01DX010 (ip), vehicle: alkali diluted with saline): 92 % of control and 96 % of control
- T/C (dose: 100.0 mg/kg/injection, schedule: Q01DX010 (ip), vehicle: alkali diluted with saline): 100 % of control and 89 % of control
- T/C (dose: 200.0 mg/kg/injection, schedule: Q01DX010 (ip), vehicle: alkali diluted with saline): 96 % of control

SMILES: CS(=O)(=O)OCCC(=O)N1CCN(C(=O)CCOS(C)(=O)=O)CC1
- T/C (dose: 6.25 mg/kg/injection, schedule: Q01DX010 (ip), vehicle: saline): 100 % of control and 105 % of control
- T/C (dose: 12.5 mg/kg/injection, schedule: Q01DX010 (ip), vehicle: saline): 100 % of control and 110 % of control and 118 % of control
- T/C [4]: 108 % of control and 109 % of control and 110 % of control
- T/C [5]: 104 % of control and 109 % of control
- T/C [6]: 109 % of control

SMILES: O=C(Nc1ccc(C2=NCCN2)cc1)c1cccc(C(=O)Nc2ccc(C3=NCCN3)cc2)c1
- T/C (dose: 8.0 mg/kg/injection, schedule: Q01DX010 (ip), vehicle: saline): 92 % of control and 96 % of control
- T/C (dose: 16.0 mg/kg/injection, schedule: Q01DX010 (ip), vehicle: saline): 96 % of control and 103 % of control
- T/C (dose: 32.0 mg/kg/injection, schedule: Q01DX010 (ip), vehicle: saline): 115 % of control and 117 % of control

SMILES: CC(=O)O[C@]1(C(C)=O)CC[C@H]2[C@@H]3C[C@H](C)C4=CC(=O)C=C[C@]4(C)[C@@]3(F)[C@@H](O)C[C@@]21C
- T/C (dose: 12.5 mg/kg/injection, schedule: Q01DX010 (sc), vehicle: steriod suspending solution): 100 % of control
- T/C (dose: 25.0 mg/kg/injection, schedule: Q01DX010 (sc), vehicle: steriod suspending solution): 100 % of control
- T/C (dose: 50.0 mg/kg/injection, schedule: Q01DX010 (sc), vehicle: steriod suspending solution): 100 % of control
- T/C (dose: 100.0 mg/kg/injection, schedule: Q01DX010 (sc), vehicle: steriod suspending solution): 100 % of control
